Assay results published in paper PMC6270263, “Factors Influencing the Antifolate Activity of Synthetic Tea-Derived Catechins” (Molecules, 2013).
Like-named read-outs stand apart in the source and are kept apart here.

Experiments:
[1] = UV-visible absorption spectra at different pH (ionization state); type: physicochemical; conditions: UV-visible spectra; pH range 5.0–9.0 for TMCG and TMECG
Protocol: It has been shown that the protonation state of methotrexate, trimethoprim, and pyrimethamine modulates the binding of these antifolates to DHFRs from several sources. […] The absorbance maximum at 278 nm undergoes a bathochromic displacement to 328 nm, which is greatest at alkaline pH (pH > 9.0).
To determine if the spectral changes in the SYCG and SYECG solutions with pH were due to an irreversible oxidation reaction or to a reversible protonation step, a pH titration experiment was carried out. An alkaline solution of SYCG and SYECG (pH 8.5) was acidified to pH 2.5 by the addition of dilute HCl. A change in the spectra was observed, indicating a reversible protonation reaction. The spectral changes with pH observed in SYCG and SYECG can be attributed to the hydroxyl group para on the ester-bonded gallate moiety. At acidic pH, these derivatives are mainly present as protonated species, whereas at basic pH or values near neutrality, these derivatives evolve toward the deprotonated species, which are stabilized by resonance (Scheme 3). […] As described, an important factor that decreases catechin bioavailability might be their inability to easily cross cellular membranes by passive diffusion. The presence of several hydroxyl groups in these molecules gives them a high hydrophilic character, which increases the difficulty of passing across lipid membranes.
Ultraviolet-visible absorption spectra of catechins at different pHs were recorded on a UV-Vis Perkin-Elmer Lambda-2 spectrophotometer with a spectral bandwidth of 1 nm at a scan speed of 60 nm s^−1. The experiments were performed in the same buffer as described for DHFR binding studies, and the ionic strength remained constant at an optimum value of 0.15 over the pH range that was used. The pH of the reaction was measured before and after the experiment.

[2] = molecular target: T1, free recombinant human DHFR (rHDHFR) (Homo sapiens, UniProt P00374); test: Binding of polyphenols to free rHDHFR by fluorescence quenching titration
T1 construct: made in house; host or cells: Bombyx mori chrysalides
T1 sequence (P00374 1-187): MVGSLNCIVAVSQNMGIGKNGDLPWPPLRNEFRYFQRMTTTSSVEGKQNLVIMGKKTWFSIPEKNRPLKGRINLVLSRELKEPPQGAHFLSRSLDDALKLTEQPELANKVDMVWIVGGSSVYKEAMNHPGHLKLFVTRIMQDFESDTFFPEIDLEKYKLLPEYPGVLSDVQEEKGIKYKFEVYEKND
Protocol: Natural and synthetic derivatives of tea catechins have shown to be good inhibitors of human DHFR [7, 11, 16, 18]. To determine the ability of natural and synthetic polyphenols to bind DHFR, we performed a structure-activity study by analyzing the binding of these polyphenols to DHFR using fluorescence quenching. Effective binding to free recombinant human DHFR (rHDHFR) was determined by measuring the decrease in enzyme fluorescence that occurs upon the formation of the enzyme-inhibitor complex. […] The dissociation constants of the synthetic compounds were on the same order as those of the natural analogues, indicating the high DHFR binding capacities of these new derivatives.
The dissociation constants for the binding of polyphenols to free recombinant human DHFR (rHDHFR) were determined by fluorescence titration in an automatic-scanning FluoroMax-3 (Jobin Ybon, Horiba, Edison, NJ, USA) spectrofluorometer with 1.0 cm light path cells and a 150 W mercury-xenon light source. The formation of a binary complex between the enzyme (2.5 × 10^−7 M) and the ligand (from 0 to 40 µM) was followed by measuring the quenching of the tryptophan fluorescence of the enzyme upon the addition of microliter volumes of a concentrated stock solution of ligand. Experiments were performed at pH 7.5 in a buffer containing 2-(N-morpholino)ethanesulfonic acid (Mes, 0.025 M), sodium acetate (0.025 M), tris(hydroxymethyl)aminomethane (Tris 0.05 M), and NaCl (0.1 M). The temperature was controlled at 25 °C using a Haake D1G circulating bath with a heater and cooler. Fluorescence emission spectra were recorded when the human DHFR fluorescence was excited at 290 nm, and titrations were performed as described elsewhere.

[3] = system: SK-MEL-28 melanoma cell line; test: MTT cell proliferation assay in melanoma cells; type: cell-based, human; conditions: Homo sapiens, SK-MEL-28, 144 h, SK-MEL-28, after 6 days of treatment; read-out: Half-maximal inhibitory concentration (IC50)
Description: Antifolate compounds are designed to inhibit DHFR and act specifically during DNA and RNA synthesis, making them more toxic to rapidly dividing cells. Recent evidences indicate that tea-catechins and derived compounds could inhibit DHFR and block the folate cycle in cancer cells. Although inhibition of DHFR by these compounds could be a plausible explanation for their antifolate activity, the possibility of these compounds targeting (folate)-enzymes other than DHFR could not be excluded. To determine whether these newly synthetized compounds disrupt the folate cycle in cell culture, we studied their antiproliferative activity in the melanoma cell line SK-MEL-28 (Table 3). Concentration- and time-dependent effects were analyzed using the colorimetric 4,5-(3)-dimethylthiazol-2-yl)-2,5-diphenyltetrazolium bromide (MTT) method.
The human melanoma cell line SK-MEL-28 was obtained from American Type Culture Collection (ATCC, Manassas, VA, USA) and was maintained in Eagles’s Minimum Essential Medium (EMEM) supplemented with 10% (v/v) FBS and antibiotics at 37 °C in a humidified atmosphere containing 7.5% CO2. Cell viability was evaluated using the MTT cell proliferation assay. Cells were evaluated for apoptosis using a cell death detection ELISA (Cell Death Detection ELISAPLUS, Roche Diagnostics, Barcelona, Spain). The principle of this test is the detection of mono- and oligonucleosomes in the cytoplasmic fractions of cell lysates using biotinylated anti-histone and peroxidase-coupled anti-DNA antibodies. The amount of nucleosomes is photometrically quantified at 405 nm by the peroxidase activity retained in the immunocomplexes. Apoptosis was defined as the specific enrichment of mono- and oligonucleosomes in the cytoplasm and was calculated by dividing the absorbance of treated samples with the absorbance of untreated samples after correcting for the number of cells. The induction of apoptosis in each melanoma cell line after a 7 h treatment with 2 μM staurosporin (100% apoptotic cells) was used to calculate the number of apoptotic cells. For these assays, cells were plated in a 96-well plate at a density of 1000–2000 cells/well. Compounds were added once at the beginning of the experiments.

- Effect of pH on absorption spectra [1]: no significant changes
- Kd ([2]; Table 2, restates Table 1, read-out: KD, order of binding strengths to rHDHFR depending on D-ring substitution): 0.9 µM
- Kd ([2]; pH 7.5, 25 °C, fluorescence titration, read-out: Dissociation constant KD of free rHDHFR): 0.9 ± 0.1 µM
- IC50 [3]: 1.5 ± 0.4 µM
SMILES: COc1cc(C(=O)O[C@H]2Cc3c(O)cc(O)cc3O[C@@H]2c2ccc(O)c(O)c2)cc(OC)c1OC [TMCG]
